Test results reported in patent publication US11235066B2, “Micelles and methods” (THE REGENTS OF THE UNIVERSITY OF MICHIGAN, priority 2015, dated 2022).

What was measured:
[1] = Body weight and physical signs during therapy; format: in vivo, CPC; Apc mice; conditions: vs no treatment (NSS) and plain rapamycin micelles
Protocol: The number of mice (number of adenomas) at the end of the study were n=5 (20), 6 (24), 5 (22), and 7 (21), respectively. Two mice (one in NSS group and one in unlabeled (plain) rapamycin micelle group) died from unexplained cause. […] Mice underwent endoscopy every ˜4 days to monitor adenoma regression and were weighed every 2 days for 5 weeks. A total of n=230 colonoscopy examinations was performed.
A linear mixed effects regression models was used to assess efficacy and toxicity. An interaction between treatment groups and time (days) was estimated in the model to compare adenoma regression rates among the different rapamycin formulations. The model has two random effects to incorporate a correlation between data measured on the same adenoma and a correlation between adenomas found within the same animal. For weights, only one random effect was used to model the correlation between data from the same animal. A comparison was considered significant if P<0.01 to adjust for multiple comparisons. All analyses were performed using SAS ver 9.3. Unless stated otherwise, all data were tested for normality. A one-way ANOVA or non-parametric Kruskal-Wallis was used to determined statistical significance for comparisons among more than 2 groups. If there was at least one difference between treatment groups, multiple comparisons were used to search for pairwise differences. […]

[2] = mouse, in vivo
Protocol: All tissues (heart, spleen, kidney, liver, and colon) were fixed in phosphate-buffered formalin for 24 h, paraffin-embedded, and cut in 10 μm sections. Routine histology (H&E) was performed. Renal toxicity was assessed after completion of therapy. Histology (H&E) from representative murine kidney sections (n=4) from the different treatment groups were evaluated for tubules with vacuoles on five random fields (400× magnification) for each specimen.

colonic adenomas = assay: In vivo fluorescence endoscopy of Cy5.5-labeled peptides binding to colonic adenomas; set-up: species or system CPC; Apc mouse; conditions: Cy5.5-labeled peptide, 200 μM via tail vein, 1 hour circulation
Excerpt: Our laboratory has previously identified a group of peptides that bind specifically to colonic adenomas in the CPC; Apc mouse. Peptides […] (SEQ ID NO: 3), KCCFPAQ (SEQ ID NO: 9), LTTHYKL (SEQ ID NO: 18), and AKPGYLS (SEQ ID NO: 17) were identified using phage display technology. Peptides YTTTNAS (SEQ ID NO: 64) and DNEPIAQ (SEQ ID NO: 65) were included as controls. These peptides were identified based on an unbiased screen of cells and tissues to maximize specific binding in vivo. The peptides were labeled with Cy5.5 and injected via tail vein at a concentration of 200 μM in 1×PBS. The peptides were allowed to circulate for 1 hour to allow for non-specific binding to clear. The colon was rinsed again with tap water. Fluorescence images were then collected. […] Fluorescence images for each adenoma were analyzed by defining a region of interest (ROI) around the adenoma and adjacent normal-appearing mucosa using ImageJ software. The mean values were calculated for each ROI, and the T/B ratio was determined. The mean T/B ratio for each peptide was calculated, and Kruskal-Wallis and Dunn's multiple comparison tests were used to determine statistical differences. […]
We performed in vivo imaging of colon in CPC; Apc mice to select the peptide to label the micelles. […] Adenomas with diameter of >1.5 mm were identified, and the location from the anus was recorded. […]

Row | Compound | body weight [1] | renal toxicity: number of vacuolated tubules per high-power field [2] | target-to-background (T/B) ratio, in vivo fluorescence (colonic adenomas) | target-to-background (T/B) ratio, in vivo fluorescence (colonic adenomas; listed as LTTHYKL)
1 | CO[C@H]1C[C@@H]2CC[C@@H](C)[C@@](O)(O2)C(=O)C(=O)N2CCCC[C@H]2C(=O)O[C@H]([C@H](C)C[C@@H]2CC[C@@H](O)[C@H](OC)C2)CC(=O)[C@H](C)/C=C(\C)[C@@H](O)[C@@H](OC)C(=O)[C@H](C)C[C@H](C)/C=C/C=C/C=C/1C [free rapamycin, Rapamycin] | gained more weight | significantly greater number of vacuoles |  | 
2 | LTTHYKL (SEQ ID NO: 18) [LTT*] |  |  | strongest binding | highest mean value
